Data set [1] deals with ULK1 (Homo sapiens (Human), UniProt O75385). Briefly: ULK1 IC50. Type of data set: biochemical.
The test system of data set [2] is Cell. Briefly: Cell EC50. Type of data set: cell-based.
Data set [3] can be described thus: Kinetic Solubility. Particulars: kinetic from dmso stock. Type of data set: physicochemical.
Data set [4] has as its target ULK2 (Homo sapiens (Human), UniProt Q8IYT8). Description: ULK2 IC50. Type of data set: biochemical.

The source of these data is patent US20250059194A1, “ULK1 AND ULK2 INHIBITORS” (Board of Trustees of Michigan State University, priority 2021, published 2025).

What is called IC50 is the concentration that inhibits the measured activity by half. High values mean weaker potency, low ones greater potency. In general, EC50 refers to the concentration that produces a half-maximal response. A lower EC50 goes with higher potency in that assay. As usually defined, the solubility (kinetic) is solubility judged after dilution from a stock solution rather than from solid.

Where a name gives a salt, the structure may show the parent alone. Bounds are passed on as bounds.

Sequence of ULK1 (O75385 whole entry): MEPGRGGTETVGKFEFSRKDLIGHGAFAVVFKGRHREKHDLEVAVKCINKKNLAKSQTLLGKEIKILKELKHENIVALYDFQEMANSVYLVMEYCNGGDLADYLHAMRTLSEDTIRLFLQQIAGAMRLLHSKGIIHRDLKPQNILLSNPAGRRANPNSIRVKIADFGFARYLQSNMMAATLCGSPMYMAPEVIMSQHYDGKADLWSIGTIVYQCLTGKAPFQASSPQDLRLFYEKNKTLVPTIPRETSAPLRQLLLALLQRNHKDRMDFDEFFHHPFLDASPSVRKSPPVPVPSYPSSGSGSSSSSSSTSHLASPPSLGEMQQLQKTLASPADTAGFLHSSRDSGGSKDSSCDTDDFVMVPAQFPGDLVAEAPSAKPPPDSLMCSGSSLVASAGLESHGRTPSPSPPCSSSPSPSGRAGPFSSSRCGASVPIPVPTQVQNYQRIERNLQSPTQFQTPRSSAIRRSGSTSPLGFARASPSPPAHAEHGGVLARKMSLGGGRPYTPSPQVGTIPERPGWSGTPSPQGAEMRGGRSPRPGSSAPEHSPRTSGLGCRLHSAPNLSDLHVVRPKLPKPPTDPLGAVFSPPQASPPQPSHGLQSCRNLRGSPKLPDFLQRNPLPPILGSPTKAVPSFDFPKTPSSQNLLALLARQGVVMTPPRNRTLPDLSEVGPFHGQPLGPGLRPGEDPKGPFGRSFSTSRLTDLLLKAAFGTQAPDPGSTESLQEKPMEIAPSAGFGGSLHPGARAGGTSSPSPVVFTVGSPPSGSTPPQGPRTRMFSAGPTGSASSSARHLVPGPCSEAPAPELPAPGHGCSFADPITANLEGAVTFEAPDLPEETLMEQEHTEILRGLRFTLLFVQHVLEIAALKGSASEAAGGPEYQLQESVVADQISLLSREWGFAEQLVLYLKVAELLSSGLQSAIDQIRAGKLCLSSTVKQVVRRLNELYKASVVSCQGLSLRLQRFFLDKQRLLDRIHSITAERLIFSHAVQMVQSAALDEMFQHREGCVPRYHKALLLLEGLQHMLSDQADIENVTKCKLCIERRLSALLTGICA
Sequence of ULK2 (Q8IYT8 whole entry): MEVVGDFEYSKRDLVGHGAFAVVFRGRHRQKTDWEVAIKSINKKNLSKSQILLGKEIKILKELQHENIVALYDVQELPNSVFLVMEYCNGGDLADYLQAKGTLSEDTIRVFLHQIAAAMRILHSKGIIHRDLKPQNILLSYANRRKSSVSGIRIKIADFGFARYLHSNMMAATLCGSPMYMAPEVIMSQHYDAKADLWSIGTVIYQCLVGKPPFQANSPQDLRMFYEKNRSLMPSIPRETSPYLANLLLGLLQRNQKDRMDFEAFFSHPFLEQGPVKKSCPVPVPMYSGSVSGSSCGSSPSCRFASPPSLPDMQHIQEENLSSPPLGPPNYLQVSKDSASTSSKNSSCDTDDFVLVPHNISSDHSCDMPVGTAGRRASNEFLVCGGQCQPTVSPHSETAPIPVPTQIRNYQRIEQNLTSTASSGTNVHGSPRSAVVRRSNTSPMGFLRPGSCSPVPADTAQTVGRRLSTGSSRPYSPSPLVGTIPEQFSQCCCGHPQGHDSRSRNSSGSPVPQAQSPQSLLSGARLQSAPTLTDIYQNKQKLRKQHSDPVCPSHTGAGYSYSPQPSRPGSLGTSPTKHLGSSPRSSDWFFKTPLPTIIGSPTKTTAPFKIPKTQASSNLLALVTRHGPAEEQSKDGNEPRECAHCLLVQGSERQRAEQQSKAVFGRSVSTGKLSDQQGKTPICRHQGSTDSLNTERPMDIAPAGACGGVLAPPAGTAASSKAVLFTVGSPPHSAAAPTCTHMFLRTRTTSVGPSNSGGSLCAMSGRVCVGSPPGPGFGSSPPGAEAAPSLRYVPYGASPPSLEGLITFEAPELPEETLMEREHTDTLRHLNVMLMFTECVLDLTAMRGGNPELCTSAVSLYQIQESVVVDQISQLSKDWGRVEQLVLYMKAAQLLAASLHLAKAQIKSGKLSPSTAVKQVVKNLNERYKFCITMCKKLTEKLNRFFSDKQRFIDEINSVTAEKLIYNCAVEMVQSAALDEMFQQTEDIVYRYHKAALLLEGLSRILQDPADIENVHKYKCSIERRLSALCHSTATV

For the molecule `CCC(CC)NC(=O)c1cc(-c2cnn3cc(N4CCC(NC(=O)OC(C)(C)C)CC4)cnc23)cs1`, the IC50 in data set [1] lay within 50 to 99 nM. The concentration for a half-maximal effect (EC50) in data set [2] was over 1000 nM. For the molecule `O=C(N[C@@H](C1CC1)C(F)(F)F)c1cc(-c2cnn3cc(Nc4ccc(F)cc4)cnc23)cs1`, in data set [1], the half-inhibitory concentration (IC50) fell in the range of 1 to 49 nM. On the same count and under the same terms, the same measure for `CCC(NC(=O)c1cc(-c2cnn3cc(Nc4ccccc4)cnc23)cs1)C1CC1` (stereo not drawn): 1 to 49 nM; for `CC[C@H](NC(=O)c1cc(-c2cnn3cc(Nc4ccccc4)cnc23)cs1)C(F)(F)F`: 1 to 49 nM. Consider `O=C(N[C@@H](C1CC1)C(F)(F)F)c1cc(-c2cnn3cc(Nc4ccccc4)cnc23)cs1`, for which the IC50 in data set [1] was 1 to 49 nM. As for `O=C(N[C@@H](C1CC1)C(F)(F)F)c1cc(-c2cnn3cc(N4CCNCC4)cnc23)cs1`, the concentration for half-maximal inhibition (IC50) in data set [1] is 1 to 49 nM.

In turn, `NC1CCN(c2cnc3c(-c4csc(C(=O)N[C@@H](C5CC5)C(F)(F)F)c4)cnn3c2)CC1` had a half-inhibitory concentration (IC50) in data set [1] of 1 to 49 nM. On the same count and under the same terms, the same measure for `CCC(CC)NC(=O)c1cc(-c2cnn3cc(-n4ccccc4=O)cnc23)cs1` [4-[6-(2-oxo-1,2-dihydropyridin-1-yl)pyrazolo[1,5-a]pyrimidin-3-yl]-N-(pentan-3-yl)thiophene-2-carboxamide]: 500 to 1000 nM. On to `CCC(CC)NC(=O)c1cc(-c2cnn3cc(N4CCC(N)CC4)cnc23)cs1` [4-[6-(4-aminopiperidin-1-yl)pyrazolo[1,5-a]pyrimidin-3-yl]-N-(pentan-3-yl)thiophene-2-carboxamide hydrochloride], for which the half-maximal inhibitory concentration (IC50) is 1 to 49 nM in data set [1] and 50 to 99 nM in data set [4]. In addition, the 50% effective concentration (EC50) in data set [2] is 100 to 499 nM. The solubility (kinetic) in data set [3] was determined as 203 µM.

As for `CCC(CC)NC(=O)c1cc(-c2cnn3cc(NC4CC4)cnc23)cs1` [4-[6-(cyclopropylamino)pyrazolo[1,5-a]pyrimidin-3-yl]-N-(pentan-3-yl)thiophene-2-carboxamide], the concentration for half-maximal inhibition (IC50) in data set [1] fell in the range of 100 to 499 nM. Turning to `CC(C)(CO)NC(=O)c1cc(-c2cnn3cc(N4CCNCC4)cnc23)cs1` [N-(1-hydroxy-2-methylpropan-2-yl)-4-[6-(piperazin-1-yl)pyrazolo[1,5-a]pyrimidin-3-yl]thiophene-2-carboxamide hydrochloride], the IC50 in data set [1] is 100 to 499 nM; in data set [4], 500 to 1000 nM. In the case of `CCC(CC)NC(=O)c1cc(-c2cnn3cc(Nc4ccccc4)cnc23)cs1` [N-(pentan-3-yl)-4-[6-(phenylamino)pyrazolo[1,5-a]pyrimidin-3-yl]thiophene-2-carboxamide], the IC50 in data set [1] and in data set [4] was 1 to 49 nM throughout. Besides, the half-maximal effective concentration (EC50) in data set [2] fell in the range of 100 to 499 nM. In turn, `CCC(CC)NC(=O)c1cc(-c2cnn3cc(N4CCCC4)cnc23)cs1` [N-(pentan-3-yl)-4-[6-(pyrrolidin-1-yl)pyrazolo[1,5-a]pyrimidin-3-yl]thiophene-2-carboxamide] showed a half-maximal inhibitory concentration (IC50) in data set [1] of 500 to 1000 nM.

`N[C@@H]1CCCC[C@@H]1NC(=O)c1cc(-c2cnn3cc(N4CCNCC4)cnc23)cs1` [N-[(1S,2R)-2-aminocyclohexyl]-4-[6-(piperazin-1-yl)pyrazolo[1,5-a]pyrimidin-3-yl]thiophene-2-carboxamide dihyrochloride]: the IC50 in data set [1] and in data set [4] was 1 to 49 nM in each case. The molecule also had an EC50 in data set [2] of 1 to 49 nM. Also, the kinetic solubility in data set [3] is over 300 µM. The molecule `CCC(CC)NC(=O)c1cc(-c2cnn3cc(N4CCNCC4)cnc23)cs1` [hydrochloride] had a 50% inhibitory concentration (IC50) in data set [1] of 50 to 99 nM. Moreover, the concentration for a half-maximal effect (EC50) in data set [2] was in the range of 500 to 1000 nM. The molecule also displayed a kinetic solubility in data set [3] of over 300 µM. In the case of `CC(C)(CO)NC(=O)c1cc(-c2cnn3cc(N4CCN(C(=O)OC(C)(C)C)CC4)cnc23)cs1` [tert-butyl 4-(3-{5-[(1-hydroxy-2-methylpropan-2-yl)carbamoyl]thiophen-3-yl}pyrazolo[1,5-a]pyrimidin-6-yl) piperazine-1-carboxylate], the IC50 in data set [1] was in the range of 1 to 49 nM; in data set [4], 100 to 499 nM.

In turn, `CCC(CC)NC(=O)c1cc(-c2cnn3cc(N4CCN(C(=O)OC(C)(C)C)CC4)cnc23)cs1` [tert-butyl 4-(3-{5-[(pentan-3-yl)carbamoyl]thiophen-3-yl}pyrazolo[1,5-a]pyrimidin-6-yl) piperazine-1-carboxylate] showed an IC50 in data set [1] of 1 to 49 nM. The molecule also yielded a 50% effective concentration (EC50) in data set [2] of over 1000 nM. As for `CC(C)(C)OC(=O)N[C@@H]1CCCC[C@@H]1NC(=O)c1cc(-c2cnn3cc(N4CCN(C(=O)OC(C)(C)C)CC4)cnc23)cs1` [tert-butyl 4-[3-(5-{[(1S,2R)-2-{[(tert-butoxy)carbonyl]amino}cyclohexyl]carbamoyl}thiophen-3-yl)pyrazolo[1,5-a]pyrimidin-6-yl]piperazine-1-carboxylate], the results for the concentration for half-maximal inhibition (IC50) in data set [1] and in data set [4] were 100 to 499 nM and 500 to 1000 nM, respectively.
